Experimental data taken from ChEMBL document CHEMBL2176959, “Design and synthesis of potent, orally efficacious hydroxyethylamine derived β-site amyloid precursor protein cleaving enzyme (BACE1) inhibitors” (J Med Chem, 2012).

Legend:
in vitro = settings: pig, LLC-PK1
[1] = AUC (0 to infinity) in Sprague-Dawley rat at 10 mg/kg, po; format: ADME, organism-based; set-up: time infinity, dose 10 mg/kg, route oral; settings: plasma
[2] = Cmax in Sprague-Dawley rat at 10 mg/kg, po; format: ADME, organism-based; set-up: dose 10 mg/kg, route oral; settings: in vivo
[3] = Drug uptake in Sprague-Dawley rat CSF at 30 mg/kg, po at 4 hrs; format: ADME, organism-based; set-up: dose 30 mg/kg, route oral; settings: cerebrospinal fluid, read-out: Drug uptake
[4] = Volume of distribution at steady state in Sprague-Dawley rat at 2 mg/kg, iv; format: ADME, organism-based; set-up: dose 2 mg/kg, route intravenous; settings: in vivo, read-out: Vdss
[5] = Oral bioavailability in Sprague-Dawley rat at 10 mg/kg; format: ADME, organism-based; settings: in vivo
[6] = Tmax in Sprague-Dawley rat at 10 mg/kg, po; format: ADME, organism-based; set-up: dose 10 mg/kg, route oral; settings: in vivo
[7] = Plasma concentration in Sprague-Dawley rat at 30 mg/kg, po at 4 hrs; format: ADME, organism-based; set-up: dose 30 mg/kg, route oral

Row | Structure (SMILES) | Papp at 2 h (in vitro) [×10⁻⁶ cm/s] | AUC(0-inf) [1] [ng·h/mL] | Cmax [2] [ng/mL] | concentration at 4 h [3] [nM] | Vd [4] [L/kg] | bioavailability [5] [%] | Tmax [6] [h] | concentration at 4 h [7] [nM]
1 | COCC(=O)N[C@@H](Cc1cccc(-c2ccncc2)c1)[C@H](O)CN[C@H]1CC2(CCC2)Oc2ncc(CC(C)(C)C)cc21 | 22 |  |  |  |  |  |  | 
2 | C#Cc1cccc(C[C@H](NC(=O)COC)[C@H](O)CN[C@H]2CC3(CCC3)Oc3ncc(CC(C)(C)C)cc32)c1 |  | 24200 | 4860 | 78 | 1.54 | 100 | 5.33 | 3540
3 | COCC(=O)N[C@@H](Cc1cc(-c2nccs2)ccc1F)[C@H](O)CN[C@H]1CC2(CCC2)Oc2ncc(CC(C)(C)C)cc21 | 11 |  |  |  |  |  |  | 

Other lines, results leading:

Row | Papp at 2 h (in vitro) [×10⁻⁶ cm/s] | AUC(0-inf) [1] [ng·h/mL] | Cmax [2] [ng/mL] | concentration at 4 h [3] [nM] | Vd [4] [L/kg] | bioavailability [5] [%] | Tmax [6] [h] | concentration at 4 h [7] [nM] | Structure (SMILES)
4 |  | 9030 | 1890 | 52 | 2.19 | 120 | 3.33 | 3270 | COCC(=O)N[C@@H](Cc1cccc(-c2nccs2)c1)[C@H](O)CN[C@H]1CC2(CCC2)Oc2ncc(CC(C)(C)C)cc21
5 | 28 |  |  |  |  |  |  |  | COCC(=O)N[C@@H](Cc1ccc(F)c(-c2nccs2)c1)[C@H](O)CN[C@H]1CC2(CCC2)Oc2ncc(CC(C)(C)C)cc21
